Measured values reported in US20050042244A1, “Method of controlling acarian and device for use in the same” (KURARAY CO LTD, priority 2002, published 2005).

What was measured:
[1] = system: Dermatophagoides pteronyssinus; experiment: Acarina repellence test by improved glass tube method; assay type: in vivo; details: filter paper that absorbed farnesylacetone (0.1 g); 37±1° C., 75±5% Rh, 48 hr; gas concentration 5 μg/L
Source text: The “glass tube method” known as one of the repellence tests for Acarina repellent-processed fibers was modified and used for a repellence test.
In the L-shaped glass tube in the test section was fixed filter paper with a two-sided tape inside the glass tube at part D, a test sample (filter paper that absorbed farnesylacetone (0.1 g)) was placed, and the glass tube opening on the D side was sealed with an airtight PARAFILM. Then, a medium containing 10,000 live Acarina (Dermatophagoides pteronyssinus) were placed in part A of the L-shaped glass Lube, and the glass end on the A side was sealed with a high density fabric capable of preventing passage of Acarina while maintaining air permeability. This test apparatus was stood still in a container maintained at 37±1° C., 75±5% Rh for 48 hr. […] The farnesylacetone concentration of the gas in part D was measured by gas chromatography. […]
Subsequently, the feed for attraction in part C was taken out, and the number of Acarina that invaded into the feed for attraction was counted by the following method. […] The number of Acarina floating in the upper layer was counted. […] The repellence rate of the test sample was determined by the following formula and found to be 98%. […]

Dermatophagoides farinae = experiment: Acarina repellence test by improved invasion prevention method (coated lid, vapor); assay type: in vivo; details: 25° C., 1 day
Method: The invasion prevention method was modified and a repellence test was performed.
As a lid to cover this box (4, 4′), two glass plates (length 5.5 cm, width 6 cm, thickness 1.3 mm) were prepared.
An ethanol solution of farnesylacetone (1%, 100 mg) was coated on the surface of one (test section side) of the two lids to cover the test box, and ethanol was air dried for 10 min. Then, a sample for Acarina attraction (50 mg) each was placed on both ends of the test box in the longitudinal direction, and the above-mentioned farnesylacetone-coated lid (4′) alone was placed, such that the surface coated with farnesylacetone faced the inside of the box. The box was placed in an incubator at 37° C. for 60 min until the farnesylacetone vapor filled the test section side of the test box. […] Thereafter, the test container was taken out, the number of Acarina that invaded into the feeds in the test section side and the control section side (50 and 1100, respectively, the rest of the Acarina fled) was counted. The repellence rate was determined by the following formula and found to be 95%. The concentration of farnesylacetone filled in the air at 37° C. was measured in the same manner as in Reference Example 1 and assumed to be 5 μg/L. Repellence rate (%)=(1− number of Acarina that invaded the test section/number of Acarina that invaded the control section)×100 […]

human = experiment: Odor and effect on human of sampled gas containing farnesylacetone; details: gas containing 20,000 μg/L farnesylacetone
Method: Farnesylacetone (1 mL) was placed in a 50 mL sample bottle, and a large magnetic stirring bar capable of rotating the air as well was placed therein. The bottle was placed neck-deep in a water bath at 60° C. with rotation, and heated for 1 hr to fill the inside of the sample bottle with farnesylacetone vapor. Thereafter, the gas in the sample bottle was taken by 5 mL with a gas tight syringe, and using gas chromatography with an FID detector, the concentration of farnesylacetone was measured by an absolute calibration method. […] Almost simultaneously, the gas (5 mL) in the sample bottle was taken again, a propeller was set in a 10 L beaker, the gas was added into the sealed beaker, the air in the beaker was stirred with the propeller for 10 min to dilute the gas 2,000-fold, whereby gas containing 0.01 μg/L farnesylacetone was obtained. […]

Acarina = experiment: Repellence test with supplied gas containing 0.001 μg/L farnesylacetone in modified glass plate test apparatus; assay type: in vivo; details: gas containing 0.001 μg/L farnesylacetone at 1 mL/min; 37±1° C., 75±5% Rh; 4 hr
Method: A 2L flask containing the gas containing 0.001 μg/L farnesylacetone prepared in the same manner as in Reference Example 1 was equipped with a Teflon® tube (inner diameter 2 mm) for discharging the gas containing farnesylacetone and a Teflon® tube for charging water into the container using a metering pump, whereby an apparatus to send out (supply) the gas containing farnesylacetone at 1 mL/min by introducing water into the flask at 1 mL/min was manufactured. […]
Then the test apparatus was placed in a room with constant temperature and humidity at 37±1° C., 75±5% Rh, and the apparatus was operated for 3 hr for filling the test section with the above-mentioned concentration of farnesylacetone, after which an Acarina medium containing 10000 live Acarina were inserted from the gap of the lid and left standing for 4 hr. Then, the number of Acarina that invaded into the feed for attraction in each part C of the test section side and the control section side was counted. […] The number of Acarina floating in the upper layer was counted. The repellence rate was determined by the following formula and found to be 80%. […]

[2] = Measurement of farnesylacetone concentration in the air (gas chromatography, FID, absolute calibration); assay type: physicochemical; details: for farnesylacetone concentration in gas of sample bottle: 1 hr
Method: measurement of farnesylacetone concentration in the air
Farnesylacetone (1 mL) was placed in a 50 mL sample bottle, and a large magnetic stirring bar capable of rotating the air as well was placed therein. The bottle was placed neck-deep in an oil bath at 130° C. with rotation, and heated for 1 hr to saturate the inside of the sample bottle with farnesylacetone vapor. Thereafter, the gas in the sample bottle was taken by 5 mL with a gas tight syringe, and using gas chromatography with an FID detector, the concentration of farnesylacetone was measured by the absolute calibration method.
Farnesylacetone (1 mL) was placed in a 50 mL sample bottle, and a large magnetic stirring bar capable of rotating the air as well was placed therein. The bottle was placed neck-deep in a water bath at 60° C. with rotation, and heated for 1 hr to fill the inside of the sample bottle with farnesylacetone vapor. Thereafter, the gas in the sample bottle was taken by 5 mL with a gas tight syringe, and using gas chromatography with an FID detector, the concentration of farnesylacetone was measured by an absolute calibration method. […] Almost simultaneously, the gas (5 mL) in the sample bottle was taken again, a propeller was set in a 10 L beaker, the gas was added into the sealed beaker, the air in the beaker was stirred with the propeller for 10 min to dilute the gas 2,000-fold, whereby gas containing 0.01 μg/L farnesylacetone was obtained. The diluted gas (200 mL) was sampled with a syringe, a propeller was set in a 2 L flask, the gas was added into the sealed flask, the air in the beaker was stirred with the propeller for 10 min to further dilute the gas 10-fold, whereby gas containing 0.001 μg/L farnesylacetone was obtained.

[3] = system: Dermatophagoides pteronyssinus; experiment: Repellence test method (invasion preventive method); assay type: in vivo; details: 1.0 g/m^2; for number of Acarina, 1 day later: untreated control 65; for number of Acarina, 2 days later: untreated control 132; for number of Acarina, 3 days later: untreated control 140
Method: The repellence rates of the isomer of farnesylacetone and phytone under 1.0 g/m^2 conditions for a kind of Dermatophagoides pteronyssinus were determined by the repellence test method (invasion preventive method: “Processing Technique” vol. 33, No. 2, pp. 153-155 (1998) “titled: Acarina repellent-processed product repellence test basic manual” (Apareru Seihin-tou Hinshitsu Seinou Taisaku Kyougikai). The results are shown in Table 1 below. […]

Row | Compound | Repellence rate [1] [%] | number of Acarina that invaded into the feed in the test section side (Dermatophagoides farinae; 50,000 released, control section side 1100) | Repellence rate (Dermatophagoides farinae; lid coated with 1% ethanol solution (100 mg), vapor only, 5 μg/L) [%] | odor and effect of sampled gas on human (human) | Repellence rate (Acarina) [%] | farnesylacetone concentration in gas of sample bottle ([2]; 60° C. water bath) [µg/L] | farnesylacetone concentration in gas of sample bottle ([2]; 130° C. oil bath, saturated vapor) | farnesylacetone concentration of the gas in part D ([2]; L-shaped glass tube of Example 1, after 48 hr at 37±1° C.) [µg/L] | concentration of farnesylacetone filled in the air ([2]; at 37° C., test box of Example 2) [ng/mL] | repellence rate, 1 day later [3] [%] | repellence rate, 2 days later [3] [%] | repellence rate, 3 days later [3] [%] | number of Acarina, 1 day later [3] [Acarina] | number of Acarina, 2 days later [3] [Acarina] | number of Acarina, 3 days later [3] [Acarina]
1 | CC(=O)CC/C=C(\C)CC/C=C(\C)CCC=C(C)C [farnesylacetone] | 98 | 50 | 95 | had a strong odor, caused cough when inhaled in a large amount, and provoked uncomfortable feeling in human | 80 | 20 | 20,000 μg/L | ~5 | ~5 | – | – | – | – | – | –
2 | CC(=O)CCC=C(C)CCC=C(C)CCC=C(C)C [cis-cis rich farnesylacetone, farnesylacetone] | – | – | – | – | – | – | – | – | – | 92.3 | 88.6 | 79.3 | 5 | 15 | 29
3 | CC(=O)CCCC(C)CCCC(C)CCCC(C)C (stereo not drawn) [phytone] | – | – | – | – | – | – | – | – | – | 89.2 | 90.9 | 83.6 | 7 | 12 | 23
4 | CC(=O)CCC=C(C)CCC=C(C)CCC=C(C)C [trans-trans farnesylacetone, farnesylacetone] | – | – | – | – | – | – | – | – | – | 87.7 | 90.2 | 82.9 | 8 | 13 | 24
